{"source": "patent US10183015B2", "about": "“Heterocyclic compounds and methods of use” (Medivation Technologies LLC, priority 2015, dated 2019)", "assay_type_in_all_cases": "in vivo", "key": {"MCP-1 [1]": {"system": "MCP-1", "experiment": "Short-term Paigen-diet NASH mouse model: hepatic MCP-1 gene expression (RT-qPCR)", "design": "key to MCP-1 gene expression: 2DDct: expression relative to vehicle group, normalized to 18S (2^-ΔΔCt); key to MCP-1 gene expression: DDct: ΔCt (vs 18S) relative to vehicle group", "details": "21 days", "method": "(§1) To investigate whether Compound #37 prevents the development of pathology associated with NASH and steatosis in an acute exploratory disease model, a study was conducted using a diet-induced acute liver steatosis model in mice. As described below, in this study, C57BL/6J mice were initiated on the Paigen diet and simultaneously treated with Compound #37 (5, 20, and 40 mg/kg/day) or vehicle control (20% HPβCD 10 mL/kg/day) by oral gavage for 21 days.\nAfter acclimation, 8-week old male C57Bl/6J mice (Charles River) weighing about 25 g were randomized in 4 groups according their body weight and treated once daily around noon by oral gavage with vehicle, or Compound #37 at various for 21 days as follows: Group 1: vehicle-20% (2-hydroxypropyl)-β-cyclodextrin (HP-β-CD) (n=10); Group 2: Compound #37, 5 mg/kg ([…]) Group 4: Compound #37, 40 mg/kg (n=10). During the treatment period, body weight and food intake (measured over 24h) were measured 3 times per week and once a week, respectively. During the acclimation, all mice were fed a standard diet (Special Diets Services RM1 (E), product no. 801492) and tap water ad libitum. After the acclimation period, mice were fed until the end of the experiment with a 60% high fat Paigen diet (60 kcal % fat, 1.25% cholesterol, and 0.5% cholate; D11061901, Research Diet) and tap water ad libitum.\n(§2) Gene expression analysis. Hepatic expression levels of genes involved in lipid metabolism (FAS, SREBP1, ACC1, SCD1), cholesterol metabolism (HMG-CoAR, LDLR), SREBP proteolysis (SCAP, INSIG1), ER stress (PERK), oxidative stress (NRF2), inflammation (MCP-1), and fibrosis (collagen 1α1) were quantified by RTqPCR. Expression level was normalized to 18S gene expression and relative expression to vehicle group was calculated with the […] method."}, "FAS": {"system": "FAS", "experiment": "Short-term Paigen-diet NASH mouse model: hepatic FAS gene expression (RT-qPCR)", "details": "FAS relative expression to vehicle group, 21 days", "method": "as §1\nAfter acclimation, 8-week old male C57Bl/6J mice (Charles River) weighing about 25 g were randomized in 4 groups according their body weight and treated once daily around noon by oral gavage with vehicle, or Compound #37 at various for 21 days as follows: Group 1: vehicle-20% (2-hydroxypropyl)-β-cyclodextrin (HP-β-CD) (n=10); Group 2: Compound #37, 5 mg/kg (n=10) Group 3: Compound #37, 20 mg/kg (n=10) Group 4: Compound #37, 40 mg/kg (n=10). During the treatment period, body weight and food intake (measured over 24h) were measured 3 times per week and once a week, respectively. During the acclimation, all mice were fed a standard diet (Special Diets Services RM1 (E), product no. 801492) and tap water ad libitum. After the acclimation period, mice were fed until the end of the experiment with a 60% high fat Paigen diet (60 kcal % fat, 1.25% cholesterol, and 0.5% cholate; D11061901, Research Diet) and tap water ad libitum.\nas §2"}, "INSIG1": {"system": "INSIG1", "experiment": "DIN mouse model: hepatic INSIG1 gene expression", "design": "key to 2^DDct: expression relative to vehicle group, normalized to 18S", "details": "for 2^DDct / DDct / Dct / INSIG1: Gene Expression: INSIG1, 20 mg/kg group; for 18S: Gene Expression: INSIG1 table, 18S reference, 20 mg/kg group", "method": "as §2\n(§3) Male C57Bl/6J mice (8 weeks old) were housed in enriched ventilated cages (31×12.5×12.7 cm) throughout the experimental phase. Animals' cages litters were changed at least once a week. Animal were housed 5 per cage on inverted 12-hour light cycle (at 09:00 am lights off), 22±2° C. and 55±10% relative humidity. The acclimation period was 20 days. During the acclimation period, all mice were fed a standard diet (RM1 (E) 801492, SDS) and tap water ad libitum. After the acclimation period, mice were fed with the DIN diet (60% fat, cholesterol enriched) and fructose-enriched tap water ad libitum until the end of the experiment.\n(§4) At 6 weeks of diet, mice were 4-hour fasted (09:00 am to 1:00 pm) and blood (150 μl/EDTA) was collected at 01:00 pm by retro-orbital bleeding under isoflurane anesthesia. Mice were then allocated in 2 homogenous groups (n=12/group) according to their plasma levels of ALT (average levels: 685U/L), AST (average levels: 627U/L) and HOMA-IR index (average value: 4.7), into 2 homogenous groups (see values at day 0 in Tables 15A and 15B ALT/AST and Tables 16A and 16B for HOMA-IR). Mice were then treated once daily by oral gavage with vehicle (Group 1) or Compound #37 at 20 mg/kg (Group 2) for 70 days.\nHepatic expression levels of genes involved in lipid (FAS, SREBP1, ACC1, SCD1), cholesterol metabolism (HMG-CoAR, LDLR), in SREBP proteolysis (SCAP, INSIG1), in ER stress (PERK), oxidative stress (NRF2), and inflammation (MCP-1) were not changed. However, expression of collagen 1α1, involved in liver fibrosis, was reduced by 66% in mice treated with Compound #37 (p<0.05 vs. vehicle)."}, "MCP-1 [2]": {"system": "MCP-1", "experiment": "DIN mouse model: hepatic MCP-1 levels", "details": "20 mg/kg; for MCP1: hepatic", "method": "as §3, §4"}}, "note": "Values joined by “and” are separate entries in the source; they are usually repeats but may differ in a detail not shown here. Identical values can stand only once.", "data": [{"smiles": "CC(C)Cc1cc(-c2nc(-c3ccc(NS(=O)(=O)C(F)(F)F)cc3Cl)cs2)ccn1", "note": "[Compound 37, N-(3-chloro-4-(2-(2-isobutylpyridin-4-yl)thiazol-4-yl)phenyl)-1,1,1-trifluoromethanesulfonamide]", "values": [{"measurement": "MCP-1 gene expression: 2DDct", "setting": "MCP-1 [1]; 5 mg/kg, group mean, n 10", "result": 0.74}, {"measurement": "MCP-1 gene expression: DDct", "setting": "MCP-1 [1]; 5 mg/kg, group mean, n 10", "result": 0.62}, {"measurement": "MCP-1 gene expression: Dct", "setting": "MCP-1 [1]; 5 mg/kg, group mean, n 10", "result": 13.9}, {"measurement": "MCP-1 gene expression: MCP-1", "setting": "MCP-1 [1]; 5 mg/kg, group mean, n 10", "result": 26.2}, {"measurement": "MCP-1 gene expression: 2DDct", "setting": "MCP-1 [1]; 5 mg/kg, individual animals", "result": "1.08 and 0.98 and 0.28 and 1.4 and 0.5 and 0.46 and 0.85 and 1.04 and 0.48 and 0.33"}, {"measurement": "MCP-1 gene expression: DDct", "setting": "MCP-1 [1]; 5 mg/kg, individual animals", "result": "−0.11 and 0.03 and 1.82 and −0.49 and 0.99 and 1.11 and 0.24 and −0.06 and 1.07 and 1.59"}, {"measurement": "MCP-1 gene expression: Dct", "setting": "MCP-1 [1]; 5 mg/kg, individual animals", "result": "13.2 and 13.36 and 15.15 and 12.84 and 14.32 and 14.44 and 13.57 and 13.27 and 14.4 and 14.92"}, {"measurement": "MCP-1 gene expression: MCP-1", "setting": "MCP-1 [1]; 5 mg/kg, individual animals", "result": "26.68 and 26.47 and 26.76 and 26.19 and 26.35 and 27.79 and 25.17 and 25.06 and 25.54 and 26.04"}, {"measurement": "MCP-1 gene expression: 2DDct", "setting": "MCP-1 [1]; 20 mg/kg, group mean, n 6", "result": 2.15}, {"measurement": "MCP-1 gene expression: DDct", "setting": "MCP-1 [1]; 20 mg/kg, group mean, n 6", "result": "−0.5"}, {"measurement": "MCP-1 gene expression: Dct", "setting": "MCP-1 [1]; 20 mg/kg, group mean, n 6", "result": 12.8}, {"measurement": "MCP-1 gene expression: MCP-1", "setting": "MCP-1 [1]; 20 mg/kg, group mean, n 6", "result": 25}, {"measurement": "MCP-1 gene expression: 2DDct", "setting": "MCP-1 [1]; 20 mg/kg, individual animals", "result": "1.27 and 2.99 and 4.08 and 3.73 and 0.54 and 0.26"}, {"measurement": "MCP-1 gene expression: DDct", "setting": "MCP-1 [1]; 20 mg/kg, individual animals", "result": "−0.35 and −1.58 and −2.03 and −1.9 and 0.88 and 1.95"}, {"measurement": "MCP-1 gene expression: Dct", "setting": "MCP-1 [1]; 20 mg/kg, individual animals", "result": "12.98 and 11.75 and 11.3 and 11.43 and 14.21 and 15.28"}, {"measurement": "MCP-1 gene expression: MCP-1", "setting": "MCP-1 [1]; 20 mg/kg, individual animals", "result": "25.89 and 24.04 and 23.5 and 24.46 and 25.7 and 26.54"}, {"measurement": "2DDct", "setting": "FAS; 5 mg/kg, group mean", "result": 1.12}, {"measurement": "2DDct", "setting": "FAS; 5 mg/kg, individual animals, 5 mg/kg", "result": "2.2 and 1.54 and 1.55 and 2.34 and 0.68 and 0.39 and 0.91 and 0.65 and 0.33 and 0.59"}, {"measurement": "2DDct", "setting": "FAS; 20 mg/kg, group mean", "result": 1.18}, {"measurement": "2DDct", "setting": "FAS; 20 mg/kg, individual animals, 20 mg/kg", "result": "1.48 and 0.56 and 0.63 and 1.65 and 0.9 and 1.88"}, {"measurement": "2^DDct", "setting": "INSIG1; individual animal", "result": "2.07 and 2.24 and 0.78 (2×) and 1.54 and 1.51 and 1.65 and 1.45 and 1.43 and 0.46 and 2.84"}, {"measurement": "DDct", "setting": "INSIG1; individual animal", "result": "−1.05 and −1.17 and 0.36 (2×) and −0.63 and −0.60 and −0.73 and −0.54 and −0.52 and 1.13 and −1.51"}, {"measurement": "Dct", "setting": "INSIG1; individual animal", "result": "9.85 and 9.73 and 11.26 (2×) and 10.27 and 10.3 and 10.17 and 10.36 and 10.38 and 12.03 and 9.39"}, {"measurement": "INSIG1", "setting": "INSIG1; individual animal", "result": "22.4 and 22.28 and 24.1 and 22.7 and 22.65 and 22.76 (2×) and 22.09 and 22.89 and 23.58 and 21.74"}, {"measurement": "2^DDct", "setting": "INSIG1; mean, n 11", "result": 1.52}, {"measurement": "DDct", "setting": "INSIG1; mean, n 11", "result": "−0.44"}, {"measurement": "Dct", "setting": "INSIG1; mean, n 11", "result": 10.5}, {"measurement": "INSIG1", "setting": "INSIG1; mean, n 11", "result": 22.7}, {"measurement": "18S", "setting": "INSIG1; individual animal, 20 mg/kg", "result": "12.55 (2×) and 12.84 and 12.43 and 12.35 (2×) and 12.59 and 11.73 and 12.51 and 11.5 and 11.55"}, {"measurement": "18S", "setting": "INSIG1; mean, n 11", "result": 12.3}, {"measurement": "Hepatic MCP-1 levels reduction", "setting": "MCP-1 [2]; 70 days, p<0.001 vs. vehicle", "result": 70, "unit": "%"}, {"measurement": "MCP1", "setting": "MCP-1 [2]; group mean, n 11", "result": 1.7, "unit": "pg/mg liver"}, {"measurement": "MCP1", "setting": "MCP-1 [2]; individual animals", "result": "1.34 pg/mg liver and 1.53 pg/mg liver and 0.60 pg/mg liver and 2.54 pg/mg liver and 1.76 pg/mg liver and 1.72 pg/mg liver and 1.42 pg/mg liver and 1.21 pg/mg liver and 1.78 pg/mg liver and 1.90 pg/mg liver and 2.59 pg/mg liver"}]}]}
